Results from patent US9492485B2, “Pluripotent stem cell-derived brown adipocytes, pluripotent stem cell-derived cell aggregate, method for producing same, and cell therapy and medical therapy therefor” (ID Pharma Co., Ltd., priority 2011, dated 2016).

Experiments:
[1] = tested on: brown adipocytes derived from human ES cells; assay: Oxygen consumption (OCR) with XF96 Extracellular Flux Analyzer; type: cell-based; conditions: CL316,243 100 nM or isoproterenol 100 μM, 4 hours (FIG. 12A right)
Method: (§1) Brown adipocytes were differentiated from KhES-3 and SeV-iPS cell lines in accordance with the method described in Example 5. Here, the adhesion culture in the step (B) for differentiation induction was carried out using a 96-well plate for exclusive use in XF96 Extracellular Flux Analyzer (Seahorse Bioscience Inc., Billerica, Mass.) after coating with 0.1% gelatin. The cell aggregates were seeded at an amount of 30 cell aggregates per well. The cell aggregates seeded in the 96-well plate were incubated in a 5% CO2 incubator at 37° C. for 2 days. Subsequently, isoproterenol (100 μM) or CL316,243 (100 nM) was added to a half of the wells, and incubation was further carried out in a 5% CO2 incubator at 37° C. for 4 hours, followed by measurement of oxygen consumption (OCR) per minute with XF96 Extracellular Flux Analyzer (Seahorse Bioscience Inc., Billerica, Mass.).

[2] = tested on: brown adipocytes derived from human iPS cells; assay: as above; type: cell-based; conditions: CL316,243 100 nM or isoproterenol 100 μM, 4 hours (FIG. 12B right)
Method: as §1

[3] = tested on: undifferentiated human ES cells; assay: as above; type: cell-based; conditions: CL316,243 100 nM or isoproterenol 100 μM, 4 hours (FIG. 12A left)
[4] = tested on: undifferentiated human iPS cells; assay: as above; type: cell-based; conditions: CL316,243 100 nM or isoproterenol 100 μM, 4 hours (FIG. 12B left)
[5] = tested on: white adipocytes produced from human mesenchymal stem cells (MSCs); assay: as above; type: cell-based; conditions: CL316,243 100 nM or isoproterenol 100 μM, 4 hours (FIG. 12C)
[6] = tested on: brown adipocytes produced from KhES-3 cell line and SeV-iPS cell line; assay: RT-PCR of PRDM16 and UCP1 gene expression after addition of adrenaline receptor agonist; type: cell-based, human; conditions: 100 μM, 4 hours, RT-PCR (FIG. 10)
Method: Brown adipocytes were produced from KhES-3 cell line and SeV-iPS cell line in accordance with the method described in Example 5 and were reacted with 100 μM of an adrenaline receptor agonist, isoproterenol, for 4 hours. In order to evaluate the activation of the brown adipocytes by the addition of the adrenaline receptor agonist, the expressions of the PRDM16 and UCP1 genes were investigated by RT-PCR.

[7] = tested on: human ES cell-derived brown adipocytes; assay: Influence of brown adipocyte stimulant on hematopoietic cytokine expression levels; type: cell-based; conditions: treatment with isoproterenol (FIG. 16E)
[8] = tested on: 10-week old mice (male, ICR strain); assay: Relief of 5-fluorouracil-induced myelosuppression in mice, bone marrow cell count; type: in vivo, mouse; conditions: 5-FU 100 mg/kg; isoproterenol 30 μmol/kg on 3 to 6 days after; vs saline; P=0.032 (FIG. 16F)
Method: Furthermore, whether or not a brown adipocyte stimulant has an effect of relieving a severe side effect of anticancer drug administration, myelosuppression, was investigated. Specifically, an anticancer drug, 5-fluorouracil (5-FU), was administered to 10-week old mice (male, ICR strain) at a dose of 100 mg/kg. Isoproterenol (30 μmol/kg) or saline was administered to the mice on 3 to 6 days after the administration, and bone marrow cells were collected from the thighbone over time and were counted.

Compound | OCR value [1] | OCR value [2] | OCR value [3] | OCR value [4] | OCR value [5] | expression of the PRDM16 gene [6] | expression of the UCP1 gene [6] | expression levels of cytokines (TPO, IL6, IL3, G-CSF, GM-CSF, EPO) [7] | number of bone marrow cells on the 7th day from the 5-FU administration [8]
C[C@H](Cc1ccc2c(c1)OC(C(=O)[O-])(C(=O)[O-])O2)NC[C@H](O)c1cccc(Cl)c1.[Na+].[Na+] [CL316,243] | significant increase | significant increase | no change | no change | no change |  |  |  | 
CC(C)NCC(O)c1ccc(O)c(O)c1 (stereo not drawn) [isoproterenol] |  |  |  |  |  | increase | increase | increased | significantly increased
